{"source": "patent US20250152602A1", "about": "“MODULATION OF AVERSIVE AND SALT TASTES” (California Institute of Technology, priority 2023, published 2025)", "key": {"[1]": {"system": "dopamine release in the nucleus accumbens (NAc)", "assay": "Dopamine release in the NAc (dLight1.3b fiber photometry) during high-salt consumption", "assay_type": "in vivo, mice", "description": "Dopamine measurement: Mice were freely moving in the chamber with gustometer. Bulk fluorescence signals were collected with a fiber photometry setting as described with the light of 405 nm and 490 nm. The ΔF/F was calculated as (raw 490-nm signal−fitted 405-nm signal)/(fitted 405-nm signal). Mice were induced with osmotic thirst 10-15 min, or sodium depletion 24 hr before the access of 500 mM NaCl. For wild-type mice, under PGE2 activation condition, mice were injected PGE2 at a dose of 1 mg per kg BW subcutaneously 1 hr before the shutter open. For Ptger3cre mice, mice were injected with either CNO or vehicle 20 min before the shutter opened. Lick number was recorded simultaneously with the fluorescence signal collection. The first lick bout was identified with the lick rate more than 3.5 and lick number more than 5, with less than 1-sec interval to the subsequent lick. If no lick bout was detectable (observed with osmotic thirst), any first lick event was included into the data. All baseline signals were calculated by averaging signals between 10-20 sec prior to the first lick. Response amplitude (normalized ΔF/F) was calculated by subtracting the baseline ΔF/F from the mean ΔF/F between 0 and 10 sec after the lick initiated."}, "[2]": {"system": "SFO/OVLT^Ptger3 neurons", "assay": "Chemogenetic inhibition (AAV-DIO-hM4Di + CNO) of LT^Ptger3 neurons, 30-min consumption assay", "assay_type": "in vivo, mice", "description": "Surgery procedures were performed according to methods known in the art. Briefly, ketamine (1 mg/ml) and xylazine (10 mg/ml) in saline were injected intraperitoneally at a dose of 10 ml per kg body weight (BW) for anaesthesia. Ketoprofen was injected subcutaneously at a dose of 5 ml per kg BW. Surgery was performed with a stereotaxic apparatus (Narishige, SR-5M-HT) on a heating pad at 37° C. Virus was delivered with a microprocessor-controlled injection system (World Precision Instruments, Nanolitre 2000) at 100 nl/min. The following coordinates were used: for pre-LC: anterior-posterior (AP), 9,000, medial-lateral (ML), 1,000, ventral-dorsal (VD), 3,800; for SFO: AP, 4,000, ML, 0, VD, 2,500; for OVLT: AP, 2,475, ML, 0, VD, 4,750; for dorsal part of the NAc medial shell: AP, 2,100, ML, 700, VD, 4,000. For optogenetic experiments, virus was delivered unilaterally at a volume of 120-200 nl. Implants were made by gluing a 200-μm fibre bundle (Thorlabs, FT200EMT) to a ceramic ferrule (Thorlabs, CF230-10) with epoxy. The fibre implant was placed 200 μm above the virus injection site. For fiber photometry experiments, virus was delivered at a volume of 150-200 nl (calcium measurement) or 500 nl (dopamine measurement) per region. A 400-μm fiber bundle (Thorlabs, FT400UMT) was used instead. For chemogenetic inhibition experiments, virus was delivered at 180-200 nl per region. For ablation experiments, virus was delivered at 200-250 nl per region. For local knockdown experiments, virus was delivered at 150-200 nl per region. At the end of experiments, all animals were euthanized for histological examination.\nFor 30-min access assay, mice were presented with 1 bottle for 30 min and consumption was measured.\nFor chemogenetic experiments, clozapine N-oxide (CNO) was administered intraperitoneally at doses of 10 mg per kg BW for inhibition or 1 mg per kg BW for activation 20 min before the consumption trial started. Pure water instead of saline was used as vehicle to avoid sodium repletion."}, "[3]": {"system": "SFO^Ptger3 neurons", "assay": "Fiber photometry calcium recording from SFO^Ptger3 neurons (GCaMP7s)", "assay_type": "in vivo, mice", "conditions": "for calcium response of SFO^Ptger3 neurons to control stimuli (normalized ΔF/F): i.p., mannitol 2 M, 10 ml per kg BW, ghrelin 10 μg, LiCl 0.15 M, 15 ml per kg BW", "description": "Calcium measurement from SFO^Ptger3 neurons: Mice were headfixed to eliminate the interference from movement. Photometry recording was performed using a commercial photometry system (Neurophotometrics, FP3002). Two LED of different wavelength (470 nm and 415 nm) were bandpass filtered and a patch cord (0.48 NA, Doric lenses) was attached to the photometry system via a 20× objective. The sampling rate was fixed at 40 Hz. Data were acquired with Bonsai (Neurophotometrics) by drawing a region of interest and calculating the mean pixel value, and then were exported to MATLAB for further analysis. The isosbestic signal (415 nm) was fit with a biexponential model and was then linearly scaled to the calcium signal (470 nm). The ΔF/F was calculated as (raw 470-nm signal−fitted 415-nm signal)/(fitted 415-nm signal). For all sessions, stimulus time was recorded through a customized TTL button. During PGE2 activation experiment (FIG. 7C), mice were given PGE2 at a dose of 1 mg per kg BW or DMSO in 100 μl PBS subcutaneously. During other internal-state treatments, mice were exposed to the following stimuli via intraperitoneal injection: 2M mannitol (10 ml per kg BW); […] of ghrelin (in 100 μl PBS), and 0.15M LiCl (15 ml per kg BW). All analysis used the average of 5 min prior to the stimulus as a baseline mean. Normalized ΔF/F was calculated by subtracting the baseline ΔF/F from the mean ΔF/F between 100 and 1500 sec after the stimulus."}, "[4]": {"system": "SFO", "assay": "Fos immunofluorescence after subcutaneous PGE2 injection", "assay_type": "in vivo, mice", "description": "PGE2-induced behavior: PGE2 was injected subcutaneously at a dose of 1 mg per kg BW. Animals had no food or water for 15-90 min before behavioral experiments. For immunohistochemistry, PGE2 was injected at a dose of 3 mg per kg BW and maintained with no food or water for 60 min before euthanasia.\nMice were euthanized with CO2 and perfused with PBS and 4% paraformaldehyde. Extracted mouse brains were fixed overnight at 4° C. in 4% PFA and sectioned coronally to 100-μm slides via vibratome (Leica, VT-1000 S). The sections were blocked (10% donkey serum, 0.2% Triton X-100 in PBS) for 1 hr at room temperature and incubated with primary antibody at 4° C. overnight. The following primary antibodies were used: rabbit anti-FOS (1:500), sheep anti-Foxp2 (1:2,000), chicken anti-GFP (1:3,000), rat anti-mCherry (1:500), and goat anti-nNos (1:500). The sections were washed three times with PBS and incubated with the secondary antibody (1:500; Jackson Immunoresearch) and DAPI ([…]) for 4 hr under room temperature. After three times wash with PBS, the sections were mounted on the glass slide. All slides were imaged with confocal microscope (Leica, TCS SP8) or slide scanner (Olympus, BX61VS)."}, "[5]": {"system": "Ptger3", "assay": "PGE2-induced behavior: high-salt consumption / aversive taste tolerance (gustometer lick assay)", "assay_type": "in vivo, mice", "experimental": "Prostaglandin: PGE2 powder was diluted in DMSO at 50 mg/ml as stock. For behavioral assay, we used the final concentration of 1 mg per kg BW in PBS containing 1.7% DMSO (v/v). The same vehicle with DMSO was used as control.\nAll assays were performed in a custom gustometer (Dialog Instruments). All animals were at least trained with osmotic thirst and sodium depletion prior to the behavior trials. Animals were trained to drink at least 200 licks for 500 mM NaCl in 30 min under sodium depletion. Generally, two training sessions with sodium depletion are sufficient to achieve this criterion. […] To prevent this, all tastants at lower concentrations were exposed to animals before experiment. For tolerance tests, one-bottle consumption assay was used in order to avoid preference development during the session."}, "[6]": {"system": "SFO^Ptger3 neurons", "assay": "Salt tolerance induced by SFO^Ptger3 photostimulation with or without amiloride", "assay_type": "in vivo, mice", "description": "(§1) For 5-sec brief access assay, mice were presented with 1 bottle of solution for 30 sec per trial for maximum waiting time before the first lick, and 40 sec between trials. After an initial lick, animals were allowed to drink the solution for additional 5 sec before a shutter closed. To avoid taste conditioning effect, animals were tested with only one solution per day. After testing aversive solutions, bitter and high salt, animals sometimes refused to drink any solution. These animals were retrained with water and low salt until their behavioral level recovers to our criteria stated above.\n(§2) For optogenetic activation, 473-nm laser-pulse sequences were delivered via an optic cable (Doric Lenses, MFP—FC-ZF) with pulse generators (World Precision Instruments, SYS-A310 or Quantum composers, Sapphire 9200). The laser intensity was maintained at 10 mW at the tip of the fiber. […] For 5-sec brief access assay, the light stimulation was given at 20 Hz throughout the trial except the paradigm in FIG. 3C."}, "[7]": {"system": "pre-LC^Pdyn neurons", "assay": "High-salt licks during pre-LC^Pdyn photostimulation with or without amiloride", "assay_type": "in vivo, mice", "description": "as §1, §2"}, "[8]": {"system": "prostaglandin production", "assay": "NSAIDs-induced loss-of-tolerance (lick number, 30 min)", "assay_type": "in vivo, mice", "conditions": "sodium depletion; ibuprofen 1 mg per ml drinking water three days plus aspirin 40 mg per kg BW i.p., given together", "description": "NSAIDs-induced loss-of-tolerance: NSAIDs were used to suppress PGE2 production. Mice were given water supplemented with ibuprofen (1 mg per ml) for three days. On the second day, mice were injected with furosemide to induce sodium depletion. On the third day, aspirin (40 mg per kg BW) was injected intraperitoneally 1-2 hr prior to the lick access. Lick number was recorded for 30 min."}, "[9]": {"system": "circulating PGE2", "conditions": "formalin-induced inflammation", "experimental": "Videos were taken for 1 hr following the injection and analyzed for the time mice spent licking the dorsal hindpaw. Mice with more than 30-sec licking paw time in the first 5 min after injection were used for video analysis. Each mouse was subjected to formalin injection twice: in one hind paw under sated conditions, and another under either sodium depleted or photostimulated conditions. To test the effect of optogenetic stimulation, light stimulation was given at 20 Hz with a 1-sec on 3-sec off paradigm for 60 min.\nMice were anaesthetized with isoflurane. Blood was collected via heart puncture into EDTA-coated tubes (BD Microtainer, 365974) and kept on ice. Plasma was then separated by centrifugation at 1,500 g for 20 min. ELISA assays were performed following the protocols of PGE2 ELISA kit (Cayman Chemical, 514531), serotonin ELISA kit (Eagle Bio, SER39-KO1), and progesterone ELISA kit (Cayman Chemical, 582601)."}, "[10]": {"system": "mice", "conditions": "thirst; formalin in dorsal hindpaw", "description": "Formalin-induced tolerance: Mice were injected with formalin or PBS in the dorsal hindpaw 45-60 min prior to the lick access. Osmotic thirst was induced 10-15 min prior to the lick access. Lick number was recorded for 30 min."}}, "note": "No end group written: not given here."}
{"compound": "C[N+]1([O-])CCN(C2=Nc3cc(Cl)ccc3Nc3ccccc32)CC1", "note": "[CNO, clozapine N-oxide]", "values": [{"measurement": "dopamine signals in the NAc (dLight1.3b)", "setting": "[1]; hM3Dq in SFO^Ptger3 neurons, CNO i.p. 1 mg per kg BW vs vehicle, high-salt ingestion", "value": "greatly enhanced"}, {"measurement": "tolerance toward aversive salt (500 mM NaCl)", "setting": "[2]; hypovolemic state, hM4Di in SFO/OVLT, CNO i.p.", "value": "drastically suppressed tolerance"}, {"measurement": "solute intake (water or high salt)", "setting": "[2]; osmotic thirst, LT^Ptger3 inhibition", "value": "no effect"}, {"measurement": "tolerance of low salt with quinine or KCl", "setting": "[2]; sodium depletion, LT^Ptger3-inhibited mice", "value": "no longer tolerated"}, {"measurement": "tolerance of low salt with KCl or quinine", "setting": "[2]; sodium depletion, only SFO^Ptger3 neurons inhibited (hM4Di in SFO)", "value": "blunted tolerance"}, {"measurement": "tolerance toward aversive salt", "setting": "[2]; sodium-depleted state, hM4Di in SFO/OVLT, CNO i.p. 10 mg per kg BW", "value": "drastically suppressed tolerance"}]}
{"compound": "[Cl-].[Li+]", "note": "[LiCl]", "values": [{"measurement": "calcium response of SFO^Ptger3 neurons to control stimuli (normalized ΔF/F)", "setting": "[3]", "value": "no activation"}]}
{"compound": "CCCCC[C@H](O)/C=C/[C@H]1[C@H](O)CC(=O)[C@@H]1C/C=C\\CCCC(=O)O", "note": "[PGE2, Prostaglandin E2]", "values": [{"measurement": "high-salt consumption during dLight recording", "setting": "[1]; thirsty mice, subcutaneous PGE2 1 mg per kg BW", "value": "increased high-salt consumption"}, {"measurement": "dopamine release in the NAc (dLight1.3b)", "setting": "[1]; thirsty mice, subcutaneous PGE2, 500 mM NaCl", "value": "enhanced dopamine release"}, {"measurement": "Fos immunofluorescence signals in the SFO", "setting": "[4]; peripheral (subcutaneous) PGE2 3 mg per kg BW, Ptger3-dependent", "value": "strong Fos immunofluorescence signals"}, {"measurement": "Fos signal in the pre-LC", "setting": "[4]; subcutaneous PGE2, scramble- and Ptger3-shRNA-injected mice", "value": "No Fos signal"}, {"measurement": "calcium dynamics of SFO^Ptger3 neurons (normalized ΔF/F)", "setting": "[3]; subcutaneous PGE2 1 mg per kg BW vs vehicle", "value": "time-locked calcium increases"}, {"measurement": "PGE2-mediated high-salt tolerance", "setting": "[5]; Ptger3 KD animals", "value": "largely abolished"}, {"measurement": "PGE2-mediated high-salt tolerance", "setting": "[5]; Ptger3^Cre/Cre animals", "value": "largely abolished"}, {"measurement": "salt tolerance (500 mM NaCl consumption)", "setting": "[5]; osmotic thirst, wild-type or Ptger3^Cre/wt, PGE2 s.c. 1 mg per kg BW", "value": "increased salt tolerance"}, {"measurement": "appetite (high-salt consumption)", "setting": "[5]; sated conditions, PGE2 s.c.", "value": "did not induce any appetite"}]}
{"compound": "N=C(N)NC(=O)c1nc(Cl)c(N)nc1N", "note": "[amiloride]", "values": [{"measurement": "SFO^Ptger3-mediated salt tolerance", "setting": "[6]", "value": "no effect"}, {"measurement": "sodium consumption (500 mM NaCl licks) induced by pre-LC^Pdyn photostimulation", "setting": "[7]", "value": "no longer induced sodium consumption"}]}
{"compound": "CC(=O)Oc1ccccc1C(=O)O", "note": "[aspirin]", "values": [{"measurement": "salt tolerance (high salt)", "setting": "[8]", "value": "significantly reduced salt tolerance"}]}
{"compound": "C=O", "note": "[formalin]", "values": [{"measurement": "circulating PGE2 levels", "setting": "[9]", "value": "increased the PGE2 levels"}, {"measurement": "high salt tolerance (500 mM NaCl)", "setting": "[10]", "value": "partially induced high salt tolerance"}, {"measurement": "water intake", "setting": "[10]", "value": "unaffected"}]}
{"compound": "CC(C)Cc1ccc(C(C)C(=O)O)cc1", "note": "(stereo not shown) [ibuprofen]", "values": [{"measurement": "salt tolerance (high salt)", "setting": "[8]", "value": "significantly reduced salt tolerance"}]}
{"compound": "OC[C@@H](O)[C@@H](O)[C@H](O)[C@H](O)CO", "note": "[mannitol]", "values": [{"measurement": "calcium response of SFO^Ptger3 neurons to control stimuli (normalized ΔF/F)", "setting": "[3]", "value": "no activation"}]}
{"compound": "ghrelin (GSSFLSPEHQRVQQRKESKKPPAKLQPR; ends and bridges not checked; UniProt Q9UBU3 24-51, looked up) [control stimulus for hunger]", "values": [{"measurement": "calcium response of SFO^Ptger3 neurons to control stimuli (normalized ΔF/F)", "setting": "[3]", "value": "no activation"}]}
